Experiments:
[1] = Metabolic stability in mouse liver microsomes assessed as half life at 1 uM preincubated for 5 mins followed by NADPH addition measured upto 45 mins by LC-MS/MS analysis; assay type: ADME, Microsome; conditions: time < 50 min
[2] = Cytotoxicity against human Huh-7 cells assessed as cell viability by Cell Titer Glo assay; assay type: toxicity, cell-based
[3] = Metabolic stability in human liver microsomes assessed as half life at 1 uM preincubated for 5 mins followed by NADPH addition measured upto 45 mins by LC-MS/MS analysis; assay type: ADME, Microsome; conditions: time < 50 min
[4] = system: SARS-CoV-2; assay: Antiviral activity against SARS-CoV-2 infected in human Huh-7 cells transfected with viral replicon incubated for 1 day; assay type: functional, organism-based; conditions: Severe acute respiratory syndrome coronavirus 2, Huh-7, 24 h; for EC90: time 1 day
[5] = Metabolic stability in human liver microsomes assessed as hepatic clearance at 1 uM preincubated for 5 mins followed by NADPH addition measured upto 45 mins by LC-MS/MS analysis; assay type: ADME, Microsome; conditions: time < 50 min
[6] = target: Replicase polyprotein 1ab (Severe acute respiratory syndrome coronavirus 2, UniProt P0DTD1); assay: Inhibition of 6His-tagged SARS-CoV-2 3CLpro using Dabcyl-KNSTLQSGLRKE-Edans as substrate preincubated for 60 mins followed by substrate addition by FRET assay
[7] = Metabolic stability in mouse liver microsomes assessed as hepatic clearance at 1 uM preincubated for 5 mins followed by NADPH addition measured upto 45 mins by LC-MS/MS analysis; assay type: ADME, Microsome; conditions: time < 50 min
[8] = AUC (0 to t) in ICR mouse at 10 mg/kg, iv measured for 24 hrs by LC-MS/MS analysis; assay type: ADME, organism-based; conditions: in vivo
[9] = AUC (0 to t) in ICR mouse at 20 mg/kg, po measured for 24 hrs by LC-MS/MS analysis; assay type: ADME, organism-based; conditions: in vivo
[10] = Half life in ICR mouse at 10 mg/kg, iv measured for 24 hrs by LC-MS/MS analysis; assay type: ADME, organism-based; conditions: in vivo
[11] = AUC (0 to infinity) in ICR mouse at 10 mg/kg, iv measured for 24 hrs by LC-MS/MS analysis; assay type: ADME, organism-based; conditions: in vivo
[12] = Half life in ICR mouse at 20 mg/kg, po measured for 24 hrs by LC-MS/MS analysis; assay type: ADME, organism-based; conditions: in vivo
[13] = AUC (0 to infinity) in ICR mouse at 20 mg/kg, po measured for 24 hrs by LC-MS/MS analysis; assay type: ADME, organism-based; conditions: in vivo
[14] = Cmax in ICR mouse at 20 mg/kg, po measured for 24 hrs by LC-MS/MS analysis; assay type: ADME, organism-based; conditions: in vivo
[15] = Oral bioavailability in ICR mouse at 20 mg/kg measured for 24 hrs by LC-MS/MS analysis; assay type: ADME, organism-based; conditions: in vivo
[16] = target: Procathepsin L (Homo sapiens, UniProt P07711); assay: Inhibition of CTSL (unknown origin) incubated for 2 hrs
Sequence of Procathepsin L (P07711 whole entry): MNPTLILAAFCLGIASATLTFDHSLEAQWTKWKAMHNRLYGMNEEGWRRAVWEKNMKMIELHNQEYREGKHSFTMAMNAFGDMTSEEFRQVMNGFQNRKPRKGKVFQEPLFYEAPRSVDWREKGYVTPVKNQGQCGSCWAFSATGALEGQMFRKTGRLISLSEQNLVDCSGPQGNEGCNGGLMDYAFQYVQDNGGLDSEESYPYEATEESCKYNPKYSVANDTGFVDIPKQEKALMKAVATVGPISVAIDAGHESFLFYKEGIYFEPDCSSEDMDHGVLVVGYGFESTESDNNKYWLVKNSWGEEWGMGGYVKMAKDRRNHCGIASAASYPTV

[17] = target: Cathepsin B (Homo sapiens, UniProt P07858); assay: Inhibition of CTSB (unknown origin) incubated for 2 hrs

In the case of CC(C)(C)[C@H](NC(=O)C(F)(F)F)C(=O)N1C[C@H]2[C@@H]([C@H]1C(=O)N[C@H](C#N)C[C@@H]1CCNC1=O)C2(C)C, the half-life at 1 µM [1] is reported as 1.17 h, the CC50 [2] is reported as > 5000 nM and the half-life at 1 µM [3] is reported as 0.91 h. For the same molecule, the EC90 [4] was 186 nM and the CLhep predicted at 1 µM [5] was 12.7 mL/min/kg.

Work on N#C[C@@H]1C[C@@]2(CN1C(=O)[C@H](CS(=O)(=O)Cc1ccccc1)NC(=O)[C@@H](NC(=O)C(F)(F)F)C1CC1)C(=O)Nc1ccccc12 yielded an IC50 [6] of 1300 nM.

In the case of CN(C(=O)[C@@H](NC(=O)C(F)(F)F)C1CC1)[C@@H](CSCc1ccccc1)C(=O)N1C[C@]2(C[C@H]1C#N)C(=O)Nc1ccccc12, the half-life at 1 µM [1] is reported as 0.0617 h, the IC50 [6] is reported as 40 nM and the CLhep predicted at 1 µM [7] is reported as 84.9 mL/min/kg.

Work on CN(C(=O)[C@@H](NC(=O)C(C)(C)F)C1CC1)[C@@H](CSCc1ccccc1)C(=O)N1C[C@]2(C[C@H]1C#N)C(=O)Nc1ccccc12 yielded a half-life at 1 µM [1] of 0.06 h, an IC50 [6] of 43 nM and a CLhep predicted at 1 µM [7] of 85.1 mL/min/kg.

In the case of N#C[C@@H]1C[C@@]2(CN1C(=O)[C@@H](CSCc1ccc(F)cc1)NC(=O)[C@@H](NC(=O)C(F)(F)F)C1CC1)C(=O)Nc1ccccc12, the half-life at 1 µM [1] is reported as 1.5 h, the AUC(0-t) at 24 h [8] is reported as 2120 ng·h/mL and the CC50 [2] is reported as > 5000 nM. It also gave an AUC(0-t) at 24 h [9] of 970 ng·h/mL, a half-life [10] of 0.47 h and an AUC(0-inf) [11] of 2130 ng·h/mL. The IC50 [6] was 25 nM, the half-life at 1 µM [3] was 1.93 h and the half-life [12] was 1.05 h. The CLhep predicted at 1 µM [7] was 36.8 mL/min/kg, the EC50 [4] was 31 nM and the EC90 [4] was 286 nM. For the same molecule, the AUC(0-inf) [13] was 972 ng·h/mL, the Cmax [14] was 1530 ng/mL and the bioavailability [15] was 22.9%. The CLhep predicted at 1 µM [5] was 8.8 mL/min/kg.

Work on CC1(C)[C@@H]2[C@@H](C(=O)N3C[C@]4(C[C@H]3C#N)C(=O)Nc3ccccc34)N(C(=O)[C@@H](NC(=O)C(F)(F)F)C3CC3)C[C@@H]21 yielded an IC50 [6] of 886 nM.

In the case of CN(C(=O)[C@@H](NC(=O)C(F)(F)F)C1CC1)[C@@H](Cc1ccc(F)cc1)C(=O)N1C[C@]2(C[C@H]1C#N)C(=O)Nc1ccccc12, the half-life at 1 µM [1] is reported as 1.25 h, the AUC(0-t) at 24 h [8] is reported as 3420 ng·h/mL and the CC50 [2] is reported as > 5000 nM. The AUC(0-t) at 24 h [9] was 1110 ng·h/mL, the half-life [10] was 1.99 h and the AUC(0-inf) [11] was 3420 ng·h/mL. For the same molecule, the IC50 [16] was 20200 nM, the IC50 [6] was 21 nM and the half-life at 1 µM [3] was 0.207 h. The half-life [12] was 2.58 h, the CLhep predicted at 1 µM [7] was 40.8 mL/min/kg and the EC50 [4] was 5 nM. The EC90 [4] was 39 nM, the AUC(0-inf) [13] was 1110 ng·h/mL and the IC50 [17] was 20700 nM. The Cmax [14] was 1360 ng/mL, the bioavailability [15] was 16.2% and the CLhep predicted at 1 µM [5] was 18.3 mL/min/kg.

In the case of CN(C(=O)[C@@H](NC(=O)OC(C)(C)C)C1CC1)[C@H](CSCc1ccccc1)C(=O)N1C[C@]2(C[C@H]1C#N)C(=O)Nc1ccccc12, the IC50 [6] is reported as 674 nM.

Molecule CC(C)(C)OC(=O)N[C@H](C(=O)N[C@@H](CSCc1ccccc1)C(=O)N1C[C@]2(C[C@H]1C#N)C(=O)Nc1ccccc12)C1CC1 has an IC50 [6] of 47 nM.

Work on CN(C(=O)[C@@H](NC(=O)C(C)(C)F)C1CC1)[C@@H](COCc1ccccc1)C(=O)N1C[C@]2(C[C@H]1C#N)C(=O)Nc1ccccc12 yielded a half-life at 1 µM [1] of 0.0783 h, an IC50 [6] of 53 nM and a CLhep predicted at 1 µM [7] of 83.6 mL/min/kg.

For CC(C)(F)C(=O)N[C@H](C(=O)N[C@@H](CSCc1ccccc1)C(=O)N1C[C@]2(C[C@H]1C#N)C(=O)Nc1ccccc12)C1CC1, the IC50 [6] was 97 nM.

For CC(C)(F)C(=O)N[C@H](C(=O)N[C@@H](COCc1ccccc1)C(=O)N1C[C@]2(C[C@H]1C#N)C(=O)Nc1ccccc12)C1CC1, the IC50 [6] was 80 nM.

Work on CN(C(=O)[C@@H](NC(=O)C(F)(F)F)C1CC1)[C@@H](CS(=O)(=O)Cc1ccccc1)C(=O)N1C[C@]2(C[C@H]1C#N)C(=O)Nc1ccccc12 yielded an IC50 [6] of 94 nM.

N#C[C@@H]1C[C@@]2(CN1C(=O)[C@H](CSCc1ccccc1)NC(=O)[C@@H](NC(=O)C(F)(F)F)C1CC1)C(=O)Nc1ccccc12 gave an IC50 [6] of 298 nM.

Molecule CC(C)C[C@H](NC(=O)[C@H]1C[C@@H]1C(=O)O)C(=O)NCCCCNC(=N)N has an IC50 [16] of 56.2 nM and an IC50 [17] of 41.4 nM.

Molecule CN(C(=O)[C@@H](NC(=O)OC(C)(C)C)C1CC1)[C@@H](CSCc1ccccc1)C(=O)N1C[C@]2(C[C@H]1C#N)C(=O)Nc1ccccc12 has an IC50 [6] of 38 nM.

Work on CC(C)(C)[C@H](NC(=O)C(F)(F)F)C(=O)N1C[C@H]2[C@@H]([C@H]1C(=O)N1C[C@]3(CC1C#N)C(=O)Nc1ccccc13)C2(C)C (stereo not given in full) yielded an IC50 [6] of 248 nM.

Reference: ChEMBL document CHEMBL6087408, “Discovery of peptidomimetic spiropyrrolidine derivatives as novel 3CLpro inhibitors against SARS-CoV -2” (Eur J Med Chem, 2025)
